The test addresses T1, His tagged full-length PTP1B protein (Homo sapiens, UniProt P18031).
T1 construct: made in house
T1 sequence (P18031 with tags, fused parts or gaps): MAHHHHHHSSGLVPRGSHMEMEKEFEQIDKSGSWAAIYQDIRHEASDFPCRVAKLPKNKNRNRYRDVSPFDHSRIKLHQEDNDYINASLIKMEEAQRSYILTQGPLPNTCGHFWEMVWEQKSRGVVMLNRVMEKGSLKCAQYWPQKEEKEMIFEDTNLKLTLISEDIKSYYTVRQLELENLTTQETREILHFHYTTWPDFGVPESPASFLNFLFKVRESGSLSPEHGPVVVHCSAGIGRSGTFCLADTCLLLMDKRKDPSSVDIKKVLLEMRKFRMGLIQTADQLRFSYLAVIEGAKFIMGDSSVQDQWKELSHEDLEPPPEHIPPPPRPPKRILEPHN
The test is described as follows: Mobility Shift Assay (MSA) used to determine potency of PTP1B inhibitors. Type of test: biochemical. To be noted: Table 2. Here is the method:
The enzymatic assay used to determine activity is a mobility shift assay using a LabChip EZ Reader by Caliper Life Sciences. The enzymatic reaction was carried out in assay buffer (50 mM HEPES pH 7.5, 1 mM EGTA, 10 mM EDTA, 0.01% Tween® 20, and 2 mM DTT). […] The enzyme (at 0.5 nM) was incubated with compound for 10 minutes at room temperature. […] The % inhibition was then used to calculate the IC50 values.
For the compound `O=C1CN(c2c(O)cc3ccc(C4=CCN(S(=O)(=O)c5ccccc5)C4)cc3c2F)S(=O)(=O)N1` [Compound 315, 5-{7-[1-(benzenesulfonyl)-2,5-dihydro-1H-pyrrol-3-yl]-1-fluoro-3-hydroxynaphthalen-2-yl}-1λ^6,2,5-thiadiazolidine-1,1,3-trione], the half-maximal inhibitory concentration (IC50) is less than 1 nM. Regarding `O=C1CN(c2c(O)cc3ccc4occc4c3c2F)S(=O)(=O)N1` [Compound 104, 5-(9-fluoro-7-hydroxynaphtho[2,1-b]furan-8-yl)-1λ^6,2,5-thiadiazolidine-1,1,3-trione], the IC50 fell in the range of 10 to 100 nM. In the case of `O=C1CN(c2c(O)cc3ccc(OCC4CC4)cc3c2F)S(=O)(=O)N1` [Compound 250, 5-[7-(cyclopropylmethoxy)-1-fluoro-3-hydroxynaphthalen-2-yl]-1λ^6,2,5-thiadiazolidine-1,1,3-trione] it was 1 to 10 nM; in that of `CC(C)(CC#N)CCOc1ccc2cc(O)c(N3CC(=O)NS3(=O)=O)c(F)c2c1` [Compound 115, 5-{[8-fluoro-6-hydroxy-7-(1,1,4-trioxo-1λ^6,2,5-thiadiazolidin-2-yl)naphthalen-2-yl]oxy}-3,3-dimethylpentanenitrile], 1 to 10 nM; in that of `C[C@@H](O)CCOc1ccc2cc(O)c(N3CC(=O)NS3(=O)=O)c(F)c2c1` [Compound 149, 5-{1-fluoro-3-hydroxy-7-[(3R)-3-hydroxybutoxy]naphthalen-2-yl}-1λ^6,2,5-thiadiazolidine-1,1,3-trione], 1 to 10 nM. With `Cc1c[nH]c(-c2ccc3cc(O)c(N4CC(=O)NS4(=O)=O)c(F)c3c2)n1` [Compound 225, 5-[1-fluoro-3-hydroxy-7-(4-methyl-1H-imidazol-2-yl)naphthalen-2-yl]-1λ^6,2,5-thiadiazolidine-1,1,3-trione] the figure was 10 to 100 nM; with `[2H]C([2H])([2H])Oc1ccc2cc(O)c(N3CC(=O)NS3(=O)=O)c(F)c2c1` [Compound 118, 5-{1-fluoro-3-hydroxy-7-[(2H3)methyloxy]naphthalen-2-yl}-1λ^6,2,5-thiadiazolidine-1,1,3-trione], 1 to 10 nM; with `CCCCS(=O)(=O)N1CC=C(c2ccc3cc(O)c(N4CC(=O)NS4(=O)=O)c(F)c3c2)C1` [Compound 291, 5-{7-[1-(butane-1-sulfonyl)-2,5-dihydro-1H-pyrrol-3-yl]-1-fluoro-3-hydroxynaphthalen-2-yl}-1λ^6,2,5-thiadiazolidine-1,1,3-trione], less than 1 nM. With `CS(=O)(=O)N1CCC(Nc2ccc3cc(O)c(N4CC(=O)NS4(=O)=O)c(F)c3c2)CC1` [Compound 305, 5-(1-fluoro-3-hydroxy-7-{[1-(methanesulfonyl)piperidin-4-yl]amino}naphthalen-2-yl)-1λ^6,2,5-thiadiazolidine-1,1,3-trione], the IC50 was greater than 100 nM.

In the case of `O=C1CN(c2c(O)cc3ccc(C4=CCN(CC(F)(F)F)CC4)cc3c2F)S(=O)(=O)N1` [Compound 275, 5-{1-fluoro-3-hydroxy-7-[1-(2,2,2-trifluoroethyl)-1,2,3,6-tetrahydropyridin-4-yl]naphthalen-2-yl}-1λ^6,2,5-thiadiazolidine-1,1,3-trione], the half-inhibitory concentration (IC50) lay in the range of 10 to 100 nM. Consider `COCCNc1ccc2cc(O)c(N3CC(=O)NS3(=O)=O)c(F)c2c1` [Compound 179, 5-{1-fluoro-3-hydroxy-7-[(2-methoxyethyl)amino]naphthalen-2-yl}-1λ^6,2,5-thiadiazolidine-1,1,3-trione], for which the IC50 is greater than 100 nM. For `O=C1CN(c2c(O)cc3ccc(OCc4cn[nH]c4)cc3c2F)S(=O)(=O)N1` [Compound 133, 5-{1-fluoro-3-hydroxy-7-[(1H-pyrazol-4-yl)methoxy]naphthalen-2-yl}-1λ6,2,5-thiadiazolidine-1,1,3-trione], the IC50 lay in the range of 1 to 10 nM. Take `CCS(=O)(=O)N1CC=C(c2ccc3cc(O)c(N4CC(=O)NS4(=O)=O)c(F)c3c2)C1` [Compound 295, 5-{7-[1-(ethanesulfonyl)-2,5-dihydro-1H-pyrrol-3-yl]-1-fluoro-3-hydroxynaphthalen-2-yl}-1λ^6,2,5-thiadiazolidine-1,1,3-trione]: the 50% inhibitory concentration (IC50) is less than 1 nM.

With `CC(C)OCCNc1ccc2cc(O)c(N3CC(=O)NS3(=O)=O)c(F)c2c1` [Compound 172, 5-[1-fluoro-3-hydroxy-7-({2-[(propan-2-yl)oxy]ethyl}amino)naphthalen-2-yl]-1λ^6,2,5-thiadiazolidine-1,1,3-trione], the IC50 was greater than 100 nM. With `CS(=O)(=O)N1CCC(Oc2ccc3cc(O)c(N4CC(=O)NS4(=O)=O)c(F)c3c2)CC1` [Compound 284, 5-(1-fluoro-3-hydroxy-7-{[1-(methanesulfonyl)piperidin-4-yl]oxy}naphthalen-2-yl)-1λ^6,2,5-thiadiazolidine-1,1,3-trione] the figure was 1 to 10 nM; with `Nc1ccc(CS(=O)(=O)N2CC=C(c3ccc4cc(O)c(N5CC(=O)NS5(=O)=O)c(F)c4c3)C2)cc1` [Compound 184, 5-(7-{1-[(4-aminophenyl)methanesulfonyl]-2,5-dihydro-1H-pyrrol-3-yl}-1-fluoro-3-hydroxynaphthalen-2-yl)-1λ^6,2,5-thiadiazolidine-1,1,3-trione], 1 to 10 nM.

With `O=C1CN(c2c(O)cc3ccc(-c4cnn(CC5CC5)c4)cc3c2F)S(=O)(=O)N1` [Compound 132, 5-{7-[1-(cyclopropylmethyl)-1H-pyrazol-4-yl]-1-fluoro-3-hydroxynaphthalen-2-yl}-1λ^6,2,5-thiadiazolidine-1,1,3-trione], the IC50 is less than 1 nM. On to `COCCNCCOc1ccc2cc(O)c(N3CC(=O)NS3(=O)=O)c(F)c2c1` [Compound 138, 5-(1-fluoro-3-hydroxy-7-{2-[(2-methoxyethyl)amino]ethoxy}naphthalen-2-yl)-1λ^6,2,5-thiadiazolidine-1,1,3-trione], for which the IC50 fell in the range of 10 to 100 nM. As for `O=C1CN(c2c(O)cc3ccc(C4=CCN(S(=O)(=O)C5CC5)CC4)cc3c2F)S(=O)(=O)N1` [Compound 297, 5-{7-[1-(cyclopropanesulfonyl)-1,2,3,6-tetrahydropyridin-4-yl]-1-fluoro-3-hydroxynaphthalen-2-yl}-1λ^6,2,5-thiadiazolidine-1,1,3-trione], the IC50 was 1 to 10 nM. In the case of `C[C@H](O)CCCc1ccc2cc(O)c(N3CC(=O)NS3(=O)=O)c(F)c2c1` [Compound 153, 5-{1-fluoro-3-hydroxy-7-[(4S)-4-hydroxypentyl]naphthalen-2-yl}-1λ^6,2,5-thiadiazolidine-1,1,3-trione] it was 1 to 10 nM; in that of `CCOc1ccc2cc(O)c(N3CC(=O)NS3(=O)=O)c(F)c2c1` [Compound 301, 5-(7-ethoxy-1-fluoro-3-hydroxynaphthalen-2-yl)-1λ^6,2,5-thiadiazolidine-1,1,3-trione], greater than 100 nM; in that of `CS(=O)(=O)N1CC[C@@H](Nc2ccc3cc(O)c(N4CC(=O)NS4(=O)=O)c(F)c3c2)C1` [Compound 304, 5-(1-fluoro-3-hydroxy-7-{[(3R)-1-(methanesulfonyl)pyrrolidin-3-yl]amino}naphthalen-2-yl)-1λ^6,2,5-thiadiazolidine-1,1,3-trione], 10 to 100 nM.

In the case of `O=C1CN(c2c(O)cc3ccc(OCC4CCOCC4)cc3c2F)S(=O)(=O)N1` [Compound 273, 5-{1-fluoro-3-hydroxy-7-[(oxan-4-yl)methoxy]naphthalen-2-yl}-1λ^6,2,5-thiadiazolidine-1,1,3-trione], the 50% inhibitory concentration (IC50) was greater than 100 nM. As for `COc1ccc2c(Cl)c(O)c(N3CC(=O)NS3(=O)=O)c(F)c2c1` [Compound 238, 5-(4-chloro-1-fluoro-3-hydroxy-7-methoxynaphthalen-2-yl)-1λ^6,2,5-thiadiazolidine-1,1,3-trione], the IC50 is greater than 100 nM.

Take `O=C1CN(c2c(O)cc3ccc(OC4CN(S(=O)(=O)C5CC5)C4)cc3c2F)S(=O)(=O)N1` [Compound 178, 5-(7-{[1-(cyclopropanesulfonyl)azetidin-3-yl]oxy}-1-fluoro-3-hydroxynaphthalen-2-yl)-1λ^6,2,5-thiadiazolidine-1,1,3-trione]: the IC50 fell in the range of 10 to 100 nM. Regarding `[2H]C1([2H])C(=O)NS(=O)(=O)N1c1c(O)cc2ccc(OC)cc2c1F` [Compound 123, 5-(1-fluoro-3-hydroxy-7-methoxynaphthalen-2-yl)(4,4-^2H2)-1λ^6,2,5-thiadiazolidine-1,1,3-trione], the IC50 was in the range of 1 to 10 nM. In the case of `O=C1CN(c2c(O)cc3ccc(C4=CCN(S(=O)(=O)C5CCC5)C4)cc3c2F)S(=O)(=O)N1` [Compound 316, 5-{7-[1-(cyclobutanesulfonyl)-2,5-dihydro-1H-pyrrol-3-yl]-1-fluoro-3-hydroxynaphthalen-2-yl}-1λ^6,2,5-thiadiazolidine-1,1,3-trione], the IC50 was less than 1 nM. As for `O=C1CN(c2c(O)cc3ccc(NCCC(F)(F)F)cc3c2F)S(=O)(=O)N1` [Compound 169, 5-{1-fluoro-3-hydroxy-7-[(3,3,3-trifluoropropyl)amino]naphthalen-2-yl}-1λ^6,2,5-thiadiazolidine-1,1,3-trione], the IC50 was 10 to 100 nM. As for `CC(C)(C)OCCOc1ccc2cc(O)c(N3CC(=O)NS3(=O)=O)c(F)c2c1` [Compound 217, 5-[7-(2-tert-butoxyethoxy)-1-fluoro-3-hydroxynaphthalen-2-yl]-1λ^6,2,5-thiadiazolidine-1,1,3-trione], the half-maximal inhibitory concentration (IC50) was 1 to 10 nM. Regarding `O=C1CN(c2c(O)cc3ccc(O)cc3c2F)S(=O)(=O)N1` [Compound 276, 5-(1-fluoro-3,7-dihydroxynaphthalen-2-yl)-1λ^6,2,5-thiadiazolidine-1,1,3-trione], the IC50 was greater than 100 nM.

As a reminder, the IC50 is the concentration needed to halve the response being measured.

The values are drawn from US20230019236A1, “PROTEIN TYROSINE PHOSPHATASE INHIBITORS AND METHODS OF USE THEREOF” (Calico Life Sciences LLC, priority 2019, published 2023).
